# Patent publication US9695155B2, “Herbicidal substituted pyrimidinyloxy benzene compounds” (E. I. DU PONT DE NEMOURS AND COMPANY, priority 2013, dated 2017)
# How the values were obtained:
# [1] = tested on: rice; assay: Test B flooded paddy test; format: in vivo, Oryza sativa; conditions: Flood, 250 g ai/ha; 0 to 100 scale where 0 is no effect and 100 is complete control
# Procedure, shortened: (§1)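 Seedlings are raised to two leaves, flooded to a depth of 3 cm and dosed by adding the compound to the floodwater. Water level is kept constant, and plants are scored visually versus controls 13–15 days later (0 = no effect, 100 = complete control).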
# [2] = tested on: wheat; assay: Test A postemergence; format: in vivo, Triticum aestivum
# Procedure, shortened: (§2)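 Greenhouse pot test, loam/sand soil. Formulation: non-phytotoxic solvent mix plus surfactant. Pre: directed spray onto soil after sowing. Post: plants at 1–2 leaf, 2–10 cm. Rated visually vs untreated controls at ~10 d, 0 (no effect) to 100 (complete control).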
# [3] = tested on: barnyardgrass; assay: Test B flooded paddy test; format: in vivo, Echinochloa crus-galli; conditions: Flood, 250 g ai/ha; 0 to 100 scale where 0 is no effect and 100 is complete control
# Procedure, shortened: as §1
# [4] = tested on: corn; assay: Test A postemergence; format: in vivo, Zea mays
# Procedure, shortened: as §2
# [5] = tested on: corn; assay: Test A preemergence; format: in vivo, Zea mays; conditions: for Plant response rating, Corn: 125 g ai/ha, 0 to 100 scale where 0 is no effect and 100 is complete control; for Corn plant response rating: 500 g ai/ha, 0 to 100 scale, 0 no effect, 100 complete control, approx. 10 days
# Procedure, shortened: as §2
# [6] = tested on: large (Lg) crabgrass; assay: Test A postemergence; format: in vivo, Digitaria sanguinalis
# Procedure, shortened: as §2
# [7] = tested on: large (Lg) crabgrass; assay: Test A preemergence; format: in vivo, Digitaria sanguinalis; conditions: for Plant response rating, Crabgrass, Large: 125 g ai/ha, 0 to 100 scale where 0 is no effect and 100 is complete control; for Crabgrass, Large plant response rating: 500 g ai/ha, 0 to 100 scale, 0 no effect, 100 complete control, approx. 10 days
# Procedure, shortened: as §2
# [8] = tested on: giant foxtail; assay: Test A postemergence; format: in vivo, Setaria faberii
# Procedure, shortened: as §2
# [9] = tested on: pigweed; assay: Test A postemergence; format: in vivo, Amaranthus retroflexus
# Procedure, shortened: as §2
# [10] = tested on: barnyardgrass; assay: Test A postemergence; format: in vivo, Echinochloa crus-galli
# Procedure, shortened: as §2
# [11] = tested on: giant foxtail; assay: Test A preemergence; format: in vivo, Setaria faberii; conditions: for Plant response rating, Foxtail, Giant: 125 g ai/ha, 0 to 100 scale where 0 is no effect and 100 is complete control; for Foxtail, Giant plant response rating: 500 g ai/ha, 0 to 100 scale, 0 no effect, 100 complete control, approx. 10 days
# Procedure, shortened: as §2
# [12] = tested on: pigweed; assay: Test A preemergence; format: in vivo, Amaranthus retroflexus; conditions: for Plant response rating, Pigweed: 125 g ai/ha, 0 to 100 scale where 0 is no effect and 100 is complete control; for Pigweed plant response rating: 500 g ai/ha, 0 to 100 scale, 0 no effect, 100 complete control, approx. 10 days
# Procedure, shortened: as §2
# [13] = tested on: wheat; assay: Test A preemergence; format: in vivo, Triticum aestivum; conditions: for Plant response rating, Wheat: 125 g ai/ha, 0 to 100 scale where 0 is no effect and 100 is complete control; for Wheat plant response rating: 500 g ai/ha, 0 to 100 scale, 0 no effect, 100 complete control, approx. 10 days
# Procedure, shortened: as §2
# [14] = tested on: morningglory; assay: Test A postemergence; format: in vivo, Ipomoea spp.
# Procedure, shortened: as §2
# [15] = tested on: sedge, umbrella; assay: Test B flooded paddy test; format: in vivo, Cyperus difformis; conditions: Flood, 250 g ai/ha; 0 to 100 scale where 0 is no effect and 100 is complete control
# Procedure, shortened: as §1
# [16] = tested on: Heteranthera limosa; assay: Test B flooded paddy test; format: in vivo; conditions: Flood, 250 g ai/ha; 0 to 100 scale where 0 is no effect and 100 is complete control
# Procedure, shortened: as §1
# [17] = tested on: velvetleaf; assay: Test A postemergence; format: in vivo, Abutilon theophrasti
# Procedure, shortened: as §2
# [18] = tested on: velvetleaf; assay: Test A preemergence; format: in vivo, Abutilon theophrasti; conditions: for Plant response rating, Velvetleaf: 125 g ai/ha, 0 to 100 scale where 0 is no effect and 100 is complete control; for Velvetleaf plant response rating: 500 g ai/ha, 0 to 100 scale, 0 no effect, 100 complete control, approx. 10 days
# Procedure, shortened: as §2
# [19] = tested on: barnyardgrass; assay: Test A preemergence; format: in vivo, Echinochloa crus-galli; conditions: for Plant response rating, Barnyardgrass: 125 g ai/ha, 0 to 100 scale where 0 is no effect and 100 is complete control; for Barnyardgrass plant response rating: 500 g ai/ha, 0 to 100 scale, 0 no effect, 100 complete control, approx. 10 days
# Procedure, shortened: as §2
# [20] = tested on: morningglory; assay: Test A preemergence; format: in vivo, Ipomoea spp.; conditions: for Plant response rating, Morningglory: 125 g ai/ha, 0 to 100 scale where 0 is no effect and 100 is complete control; for Morningglory plant response rating: 500 g ai/ha, 0 to 100 scale, 0 no effect, 100 complete control, approx. 10 days
# Procedure, shortened: as §2
# [21] = 125 g ai/ha, 0 to 100 scale where 0 is no effect and 100 is complete control
# [22] = 500 g ai/ha, 0 to 100 scale, 0 no effect, 100 complete control
SMILES,"Plant response rating, Rice [1]","Plant response rating, Wheat [2, 21]","Plant response rating, Wheat [2, 22]","Plant response rating, Barnyardgrass [3]","Plant response rating, Corn [4, 21]","Plant response rating, Corn [4, 22]","Plant response rating, Corn [5]",Corn plant response rating [5],"Plant response rating, Crabgrass, Large [6, 21]","Plant response rating, Crabgrass, Large [6, 22]","Plant response rating, Crabgrass, Large [7]","Crabgrass, Large plant response rating [7]","Plant response rating, Foxtail, Giant [8, 21]","Plant response rating, Foxtail, Giant [8, 22]","Plant response rating, Pigweed [9, 21]","Plant response rating, Pigweed [9, 22]","Plant response rating, Barnyardgrass [10, 21]","Plant response rating, Barnyardgrass [10, 22]","Plant response rating, Foxtail, Giant [11]","Foxtail, Giant plant response rating [11]",also measured
Clc1ccc(-n2cccn2)c(Oc2ncc(Br)cn2)c1 [Compound 50],0,0,0,0,0,0,0,0,0,10,0,40,0,0,20,30,0,10,0,0,"Plant response rating, Pigweed [12]: 0; Pigweed plant response rating [12]: 0; Plant response rating, Wheat [13]: 0; Wheat plant response rating [13]: 0; Plant response rating, Morningglory [14, 21]: 20; Plant response rating, Morningglory [14, 22]: 30; Plant response rating, Sedge, Umbrella [15]: 0; Plant response rating, Ducksalad [16]: 0; Plant response rating, Velvetleaf [17, 21]: 0; Plant response rating, Velvetleaf [17, 22]: 10; Plant response rating, Velvetleaf [18]: 0; Velvetleaf plant response rating [18]: 0; Plant response rating, Barnyardgrass [19]: 0; Barnyardgrass plant response rating [19]: 0; Plant response rating, Morningglory [20]: 0; Morningglory plant response rating [20]: 0"
Clc1cnc(Oc2cc(Cl)ccc2-n2cc(Br)cn2)nc1 [Compound 51],0,0,0,0,0,20,0,0,0,20,40,90,0,10,30,70,0,10,20,80,"Plant response rating, Pigweed [12]: 10; Pigweed plant response rating [12]: 80; Plant response rating, Wheat [13]: 0; Wheat plant response rating [13]: 0; Plant response rating, Morningglory [14, 21]: 10; Plant response rating, Morningglory [14, 22]: 20; Plant response rating, Sedge, Umbrella [15]: 65; Plant response rating, Ducksalad [16]: 40; Plant response rating, Velvetleaf [17, 21]: 50; Plant response rating, Velvetleaf [17, 22]: 60; Plant response rating, Velvetleaf [18]: 0; Velvetleaf plant response rating [18]: 0; Plant response rating, Barnyardgrass [19]: 20; Barnyardgrass plant response rating [19]: 30; Plant response rating, Morningglory [20]: 0; Morningglory plant response rating [20]: 0"
CC=Cc1cnn(-c2ccccc2Oc2ncc(Cl)cn2)c1 [Compound 27],0,0,0,0,0,10,0,0,20,60,0,50,0,30,60,70,0,10,0,40,"Plant response rating, Pigweed [12]: 10; Pigweed plant response rating [12]: 20; Plant response rating, Wheat [13]: 0; Wheat plant response rating [13]: 0; Plant response rating, Morningglory [14, 21]: 10; Plant response rating, Morningglory [14, 22]: 50; Plant response rating, Sedge, Umbrella [15]: 75; Plant response rating, Ducksalad [16]: 75; Plant response rating, Velvetleaf [17, 21]: 50; Plant response rating, Velvetleaf [17, 22]: 70; Plant response rating, Velvetleaf [18]: 0; Velvetleaf plant response rating [18]: 10; Plant response rating, Barnyardgrass [19]: 0; Barnyardgrass plant response rating [19]: 20; Plant response rating, Morningglory [20]: 0; Morningglory plant response rating [20]: 0"
FC(F)(F)c1ccc(Oc2ncc(Cl)cn2)c(-n2cc(Br)cn2)c1 [Compound 48],0,0,0,0,0,0,0,0,10,20,50,80,0,20,20,50,0,10,10,50,"Plant response rating, Pigweed [12]: 0; Pigweed plant response rating [12]: 0; Plant response rating, Wheat [13]: 0; Wheat plant response rating [13]: 0; Plant response rating, Morningglory [14, 21]: 20; Plant response rating, Morningglory [14, 22]: 30; Plant response rating, Sedge, Umbrella [15]: 0; Plant response rating, Ducksalad [16]: 0; Plant response rating, Velvetleaf [17, 21]: 0; Plant response rating, Velvetleaf [17, 22]: 10; Plant response rating, Velvetleaf [18]: 0; Velvetleaf plant response rating [18]: 0; Plant response rating, Barnyardgrass [19]: 0; Barnyardgrass plant response rating [19]: 0; Plant response rating, Morningglory [20]: 0; Morningglory plant response rating [20]: 0"
